The source of these data is the Deep4Chem optical property database.

A short description of this series: solvent given as SMILES.

Several values for one entry are separate records, joined by “and”; a condition that tells them apart may be missing. Equal values may be shown once.

`CCCCCCc1ccc2c3c(ccc2c1)O[B-](c1ccccc1)(c1ccccc1)[N+](c1ccc([N+]2=Cc4c(ccc5cc(CCCCCC)ccc45)O[B-]2(c2ccccc2)c2ccccc2)cc1)=C3`: the absorption maximum by setting is: (in C1CCOC1) 455 nm; (in CC#N) 452 nm; (in Cc1ccccc1) 462 nm; (in ClCCl) 459 nm.
For `N#Cc1ccc(C2=Cc3ccccc3P2(=O)c2ccccc2)cc1` (stereo not drawn), for the setting “in ClCCl”, the absorption maximum is 350 nm.
With `CC(C)(C)c1ccc2ccc3cccc4ccc1c2c34`, the absorption maximum stood at 338 nm (in CCCCCC), 338 nm (in CO) and 341 nm (in ClCCl).
In the case of `CCOC(=O)CSc1nc(-c2ccccc2)c(C)c(C#N)c1C#N`, the absorption maximum reads like this: (in C1COCCO1) 350 nm; (in CC#N) 365 nm; (in CCO) 367 nm; (in CCOC(C)=O) 366 nm; (in ClC(Cl)Cl) 376 nm; (in c1ccccc1) 372 nm.
Turning to `Cc1ccc2[nH]c(-c3ccc(-c4ccc(-c5ccc(-c6nc7cc(C)ccc7[nH]6)cc5)c(F)c4)cc3)nc2c1`, the absorption maximum (in CN(C)C=O) amounted to 344 nm.
`N#Cc1cc2ccc(O)cc2oc1=O`: the absorption maximum (in C1CCCCC1) turned out to be 361 nm; the absorption maximum (in C1CCOC1) is reported as 355 nm; the absorption maximum (in CC#N) is given as 352 nm; the absorption maximum (in CCOC(C)=O) came out at 356 nm; the absorption maximum (in CS(C)=O) came to 351 nm; the absorption maximum (in ClC(Cl)Cl) was found to be 359 nm. This compound registered an absorption maximum (in O) of 355 nm.
`CCCCn1c(-c2ccc(-c3nnc(-c4ccc5ccccc5c4)o3)cc2)nc2c3ccccc3c3ccccc3c21` came in with an absorption maximum (in ClCCl) of 363 nm.
For `CC1=[N+]2C(=C(c3ccc(-c4c5ccccc5c(-c5ccccc5)c5ccccc45)cc3)c3ccc(C)n3[B-]2(F)F)C=C1`, the absorption maximum is, setting by setting: (in CC#N) 508 nm; (in CCCCCC) 512 nm; (in CCO) 511 nm; (in CN(C)C=O) 512 nm; (in Cc1ccccc1) 516 nm; (in ClCCl) 513 nm.
As for `Cn1c(/C=C/c2ccc(/C=C/c3nc4ccccc4[nH]3)cc2)[n+](C)c2ccccc21`, the absorption maximum is reported as 363 nm (in C1CCOC1); 377 nm (in CC#N); 386 nm (in CC(C)=O); 389 nm (in CN(C)C=O); 391 nm (in CO); 392 nm (in CS(C)=O). Under “in O”, this compound gave an absorption maximum of 376 nm.
On to `Clc1ccc(/C=C(\c2ccccc2)c2nc3ccccc3o2)cc1`, for which the absorption maximum amounted to 330 nm (in C1CCCCC1) and 330 nm (in CO).
The compound `CCCCCCn1c2cc(/C=C(\C#N)c3ccccc3)ccc2c2ccc(/C=C(\C#N)c3ccccc3)cc21` gave an absorption maximum (in ClC(Cl)Cl) of 423.73 nm.
The compound `Fc1ccc(C#Cc2c(C#Cc3ccc(F)cc3)c(C#Cc3ccc(F)cc3)c(C#Cc3ccc(F)cc3)c(C#Cc3ccc(F)cc3)c2C#Cc2ccc(F)cc2)cc1` returned an absorption maximum (in ClCCl) of 368 nm.
`C1=Nc2cccc3cccc(c23)N1` had an absorption maximum (in CC#N) of 329 nm, an absorption maximum (in CO) of 329 nm, an absorption maximum (in CS(C)=O) of 333 nm and an absorption maximum (in Cc1ccccc1) of 331 nm.
Turning to `CSc1sc(C(=O)c2ccccc2)c2nn[nH]c(=O)c12`, the absorption maximum stood at 396.5 nm (in C1CCOC1); 396 nm (in CC#N); 400 nm (in CCO); 409 nm (in CN(C)C=O); 400 nm (in CO); 405.5 nm (in CS(C)=O).
In the case of `c1ccc2c(c1)CCc1ccccc1N2c1c2ccccc2c(N2c3ccccc3CCc3ccccc32)c2ccccc12`, under “in Cc1ccccc1”, the absorption maximum was determined as 456 nm.
For `CC(C)(C)c1ccc2c3c(c4ccc(C(C)(C)C)cc4c2c1)=[N+]1C(=C(c2ccccc2)c2cc4c5ccc(C(C)(C)C)cc5c5cc(C(C)(C)C)ccc5c4n2[B-]1(F)F)C=3`, the absorption maximum is listed as 693 nm (in C1CCCCC1); 689 nm (in C1CCOC1); 683 nm (in CC#N); 694 nm (in Cc1ccccc1); 691 nm (in ClCCl).
Turning to `COc1ccc(-n2c(-c3ccc(-c4cncc5ccccc45)cc3)nc(-c3ccccc3)c2-c2ccccc2)cc1`, the absorption maximum (in C1CCOC1) was 328 nm.
In turn, `CC(C)c1cc(C(C)C)c(B2c3cc(-n4c5ccccc5c5ccccc54)ccc3N(c3ccccc3)c3ccc(-n4c5ccccc5c5ccccc54)cc32)c(C(C)C)c1` had an absorption maximum (in C1CCCCC1) of 400 nm.
For the setting “in ClCCl”, `CCOC(=O)/N=c1/oc2cc(N(CC)CC)ccc2cc1C#N` came in with an absorption maximum of 440 nm.
With `CN(c1ccccc1)c1ccc(N(c2ccccc2)c2ccc3ccc4c(N(c5ccccc5)c5ccc(N(C)c6ccccc6)cc5)ccc5ccc2c3c54)cc1`, where the note is “in ClCCl”, the absorption maximum is 435 nm.
Under “in CO”, `Cc1cc(C)c(B(c2cc(-c3ccc(N(C)C)cc3)sc2-c2sc(-c3ccc(N(C)C)cc3)cc2P(=O)(c2ccccc2)c2ccccc2)c2c(C)cc(C)cc2C)c(C)c1` had an absorption maximum of 435 nm.
As for `CN(C)c1[se]c(-c2ccc(Cl)cc2)nc1-c1ccccc1`, the absorption maximum (in ClC(Cl)Cl) was 360 nm.
`CCCCCCCCCCCCN1C(=O)c2c(c3ccc4cc(-c5ccc(C(F)(F)F)cc5)c(OC)cc4c3c3c2ccc2cc(-c4ccc(C(F)(F)F)cc4)c(OC)cc23)C1=O`: the absorption maximum (in ClCCl) is on record as 427 nm.
Still for that read-out and setting: under `COc1ccc2cc(C#N)c(=N)oc2c1` stands 358 nm.
With `CN(C)c1ccc(-c2ccc(-c3cc(N4CCCCC4)c(C#N)c4c3-c3ccccc3CC4)cc2)cc1`, the absorption maximum is 353 nm (in C1CCCCC1); 342 nm (in C1CCOC1); 350 nm (in CN(C)C=O); 342 nm (in CS(C)=O); 360 nm (in Cc1ccccc1); 348 nm (in ClC(Cl)Cl).
Consider `CCC1=C(C)C2=Cc3c4ccccc4c4n3[B-](c3ccncc3)(Oc3ccccc3-4)[N+]2=C1C=Cc1ccc(OC)cc1` (stereo not drawn), for which the absorption maximum by setting is: (in CC#N) 690 nm; (in CCCCCC) 698 nm; (in Cc1ccccc1) 703 nm; (in ClCCl) 699 nm.
Consider `C1=Cc2nc1c(-c1cccs1)c1ccc([nH]1)c(-c1cccs1)c1nc(c(-c3cccs3)c3ccc([nH]3)c2-c2cccs2)C=C1`, for which the absorption maximum by setting is: (in CN(C)C=O) 661 nm; (in ClCCl) 426 nm.
For `Cc1ccc(-c2c3nc(c(-c4ccc(C)cc4)c4ccc([nH]4)c(-c4ccc(OC(=O)C(C)c5ccc(CC(C)C)cc5)cc4)c4nc(c(-c5ccc(C)cc5)c5ccc2[nH]5)C=C4)C=C3)cc1` (stereo not drawn), the absorption maximum (in ClCCl) was 649 nm.
`CC(=O)c1ccc(-c2cnc3nn4ccccc4c3c2)cc1` displayed an absorption maximum (in C1CCOC1) of 386 nm.
In the case of `CC[n+]1nc2cc3c(cc2c2cc(C)ccc21)N(C)CCC3`, the absorption maximum (in O) came out at 487 nm.
In the case of `COc1cc(OC)c2cc(-c3cccc(-c4cc5c(OC)cc(OC)cc5oc4=O)c3)c(=O)oc2c1`, the absorption maximum (in ClC(Cl)Cl) is reported as 352 nm.
Consider `CC1=CC(C)=[N+]2C1=C(c1ccc(N3CCCCC3)cc1)c1c(C)cc(C)n1[B-]2(F)F`, for which the absorption maximum (in C1CCOC1) is 499 nm; the absorption maximum (in CC#N) worked out at 496 nm; the absorption maximum (in CC(=O)C(C)(C)C) is 496 nm; the absorption maximum (in CC(C)=O) was 495 nm; the absorption maximum (in CCCCCC) was found to be 500 nm; the absorption maximum (in CCOC(C)=O) was 498 nm. Further, the absorption maximum (in CO) is 500 nm and 497 nm.
`COC(=O)c1cccc2c1C#Cc1c(NC(C)=O)cccc1OCCCO2`: the absorption maximum (in CC#N) is 335 nm and the absorption maximum (in ClCCl) amounted to 341 nm.
As to `N#Cc1nc(-c2ccc(N3c4ccccc4Oc4ccccc43)cc2)c(-c2ccc(N3c4ccccc4Oc4ccccc43)cc2)nc1C#N`, for the setting “in Cc1ccccc1”, the absorption maximum was 473 nm.
With `CCCCCCN1C(=O)c2cccc3c(-c4ccc([N+](=O)[O-])s4)ccc(c23)C1=O`, where the note is “in ClC(Cl)Cl”, the absorption maximum came to 363 nm.
`C/C(=C\c1ccc(Cl)cc1)c1nc2ccccc2o1`: the absorption maximum (in C1CCCCC1) worked out at 320 nm and the absorption maximum (in CO) was 320 nm.
With `CCCCCCc1cc2c(=O)c3cc(CCCCCC)cc4c(=O)c5cc(CCCCCC)cc6c(=O)c(c1)c2n(c34)c65`, where the note is “in ClCCl”, the absorption maximum came to 424 nm.
The same measure, in the same setting: in the case of `CCOCCOCCOC(=O)/C=C/C1=CC2=C(c3c(C)cc(C)cc3C)c3cccn3[B-](F)(F)[N+]2=C1` it was 536 nm.
In turn, `CC[N+]1(CC)CN2C(=N1)C(C(=O)O)=Cc1ccc(OC)cc12` came in with an absorption maximum (in O) of 372 nm.
As to `CC/[NH+]=c1\cc2oc3cc(NCCNC(=O)C(NC(=O)OC(C)(C)C)C(C)C)c4ccccc4c3nc-2cc1C` (stereo not drawn), the absorption maximum is, setting by setting: (in CCO) 590 nm; (in O) 590 nm.
In the case of `O=c1c2ccccc2c2c3c(cccc13)c(-c1ccccc1)c1c3cccc4cccc(c43)c12`, the absorption maximum (in CC#N) amounted to 462 nm and the absorption maximum (in CO) is recorded as 461 nm.
As for `COc1ccc(/C2=C3N=C(C(c4ccccc4)=C/3c3ccccc3)/C(c3ccc(OC)cc3)=c3\[nH]/c(c(-c4ccccc4)c3-c3ccccc3)=C(/c3ccc(OC)cc3)C3=N/C(=C(/c4ccc(OC)cc4)c4[nH]c2c(-c2ccccc2)c4-c2ccccc2)C(c2ccccc2)=C3c2ccccc2)cc1`, the absorption maximum (in ClCCl) is reported as 731 nm.
As to `CC/[NH+]=c1\cc2oc3cc(NCCC(=O)NCCCCC(NC(C)=O)C(=O)OC)c4ccccc4c3nc-2cc1C` (stereo not drawn), the absorption maximum was determined as 590 nm (in CCO) and 590 nm (in O).
`Cc1cc(-c2nc(-c3ccccc3)nc(-c3ccccc3)n2)cc(C)c1N1c2ccccc2CCc2ccccc21` had an absorption maximum (in Cc1ccccc1) of 392.74 nm.
For `O=C1c2ccccc2C2=Cc3ccc4ccccc4[n+]3[B-](F)(F)N12`, the absorption maximum reads like this: (in CCO) 450 nm; (in Cc1ccccc1) 458 nm; (in ClCCl) 454 nm.
For the compound `CCn1c2ccccc2sc2c(C#N)c3oc4ccccc4oc3c(C#N)c21`, the absorption maximum (in ClC(Cl)Cl) was determined as 460 nm.
